Source: patent publication US20190010182A1, “SALT OF (SS)-ADENOSYL METHIONINE WITH INOSITOL HEXAPHOSPHATE, AND PROCESS FOR THE PREPARATION THEREOF” (GNOSIS S.p.A., priority 2017, published 2019)

Columns and labels:
[1] = accelerated stability test, thermostatic stove at +55° C., 5 days; assay type: physicochemical
Method: The product obtained as described in Example 6 (comprising SAMe and phytic acid) and a sample of SAMe inositol hexaphosphate obtained as described in Example 5 are subjected to an accelerated stability test, incubated in a thermostatic stove at +55° C., and the analyses are repeated after 5 days.
The samples are analysed for the following values:
SAMe ion content (total of all enantiomers) determined by HPLC and expressed as % by weight enantiomeric purity, determined by HPLC and expressed as % of (SS) isomer active ingredient content, calculated by multiplying the previous two values and expressed as % by weight of (SS)SAMe overall purity, determined by HPLC as SAMe area/total area of chromatogram, expressed as area %. The figure comprises the values of all known degradation impurities.

[2] = Pharmacokinetic profile in the rat (SAMe blood levels, AUC); assay type: in vivo, Sprague Dawley rats; details: by cannula in water, 134 mg/kg and 95 mg/kg, compared with SAMe Pates at equal SAMe ion dose
Method: 70 Sprague Dawley rats (35 male and 35 female), aged 7-9 weeks and weighing 176-200 g, were acclimatized in a cage for two weeks before the start of the treatment, maintained at +22° C. and 55% relative humidity. The rats were fed on 4RF 21 (Mucedola) feed, and weighed before the beginning and at the end of the test. At the time of treatment, 32 animals per group (16 males and 16 females) were selected from those with the most similar weights, and assigned to the two treatments.
The product was administered by cannula, dissolved in water, at two dose levels, namely 134 mg/kg and 95 mg/kg. The rats were fasted overnight before administration and for a further two hours after administration. The two equimolar doses guaranteed an equal intake of SAMe ion.
The blood levels of SAMe were assayed by taking a sample from the tail vein at fixed intervals, at times 0 (pre-administration), 0.5, 1, 1.5, 2, 4, 8 and 24 hours after administration. The blood samples were centrifuged after addition of EDTA to separate the plasma from the cell fraction. The plasma was then analysed by HPLC according to the method reported in Wise, Fullerton J. Liq. Chromatogr. […]
The SAMe plasma concentration values are also used to determine, according to the Area Under Curve (AUC) calculation, the total quantity of active ingredient absorbed, obtaining the values set out in FIG. 2.

[3] = stability test, storage at +25° C. in a thermostatic stove up to 6 months; assay type: physicochemical; details: FIG. 4
Method: FIG. 3 depicts SAMe ion content analysis in a product stability test, storing samples at 25° C. in a thermostatic stove up to 6 months. The test measured the SAMe ion content (as percent loss of SAMe ion) in the (SS)SAMe inositol hexaphosphate salt (samples AT1003 and AT1005), the commercial SAMe 1,4-butanedisulphonate salt (sample SD4Test1), the commercial SAMe Pates salt (S1S1057B) and the SAMe-metal-phytate complex obtained according to EP1896489 (sample 04B17DS).
FIG. 4 further depicts SAMe ion content analysis in a product stability test for diastereomeric purity, storing samples at 25° C. in a thermostatic stove up to 6 months. The test measured the (SS)SAMe diastereoisomer ion content (as percent loss of (SS)SAMe diastereomer) in the (SS)SAMe inositol hexaphosphate salt (samples AT1003 and AT1005), and also in the commercial SAMe 1,4-butanedisulphonate salt (sample SD4Test1), the commercial SAMe Pates salt (S1S1057B) and the SAMe-metal-phytate complex obtained according to EP1896489 (sample 04B17DS).
Some samples of the products obtained as described in the previous examples are subjected to stability tests, storing them at +25° C., in a thermostatic stove. […]

Q: Which “content of the active ingredient (SS)SAMe after the stress test” value ([1]; 5 days at +55° C., compared with 04B17DS) does the source give for `C[S@@+](CC[C@H](N)C(=O)[O-])C[C@H]1O[C@@H](n2cnc3c(N)ncnc32)[C@H](O)[C@@H]1O.O=P(O)(O)O[C@H]1[C@H](OP(=O)(O)O)[C@@H](OP(=O)(O)O)[C@H](OP(=O)(O)O)[C@@H](OP(=O)(O)O)[C@H]1OP(=O)(O)O` [AT1003, (SS)-adenosyl methionine with myo-inositol 1,2,3,4,5,6 hexakisphosphate] here?
A: maintains a higher content

Q: And the “degradation by isomerization after the stress test” value ([1]; 5 days at +55° C., comparison of AT1003 and 04B17DS)?
A: surprisingly lower

Q: What about the “(SS) enantiomer (enantiomeric purity, HPLC), final value” ([1]; after 5 days at +55° C.) of the same compound?
A: 69.56%

Q: What about the “SAMe content (SAMe ion, total of all enantiomers, HPLC), final value” ([1]; after 5 days at +55° C.) of the same compound?
A: 30.6% w/w

Q: And the “Purity (% area), final value” ([1]; after 5 days at +55° C., HPLC SAMe area/total area)?
A: 90.0% area

Q: And the “(SS)SAMe content (active ingredient content), final value” ([1]; after 5 days at +55° C., SAMe content x enantiomeric purity, % by weight)?
A: 21.28%

Q: And the “(SS) enantiomer (enantiomeric purity, HPLC), starting value” ([1]; before incubation at +55° C.)?
A: 77.2%

Q: And the “SAMe content (SAMe ion, total of all enantiomers, HPLC), starting value” ([1]; before incubation at +55° C.)?
A: 34.45% w/w

Q: And the “Purity (% area), starting value” ([1]; before incubation at +55° C., HPLC SAMe area/total area)?
A: 95.98% area

Q: And the “(SS)SAMe content (active ingredient content), starting value” ([1]; before incubation at +55° C., SAMe content x enantiomeric purity, % by weight)?
A: 26.59%

Q: What about the “plasma concentration of active ingredient (SAMe)” value ([2]; FIG. 1) of the same compound?
A: higher plasma concentration

Q: And the “absorption (AUC 8 hours of SAMe plasma concentration)” value ([2]; FIG. 2)?
A: better absorption

Q: And the “(SS)SAMe isomer content stability (percent loss of (SS)SAMe diastereomer)” value [3]?
A: stable for longer
